Experimental data as given in patent US20220306630A1, “AGONISTS OF ROR GAMMAt” (BRISTOL-MYERS SQUIBB COMPANY, priority 2019, published 2022).

Target: T1, RORgT (Homo sapiens, UniProt P51449)
T1 construct: Gal4 (fusion partner); expressed in transfected cells; host or cells: engineered Jurkat cells (Jurkat pEx/Gal/hRORγ CLBD/HYG pG5luc/blast)
T1 sequence (P51449 267-516): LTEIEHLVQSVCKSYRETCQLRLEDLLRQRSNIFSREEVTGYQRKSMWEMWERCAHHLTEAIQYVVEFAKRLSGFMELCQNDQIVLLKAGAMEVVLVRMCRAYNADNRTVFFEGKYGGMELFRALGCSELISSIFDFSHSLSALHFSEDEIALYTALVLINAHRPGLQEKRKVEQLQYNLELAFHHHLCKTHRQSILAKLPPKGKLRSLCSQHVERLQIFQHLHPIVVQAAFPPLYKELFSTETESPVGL
Assay: RORgT Gal4 Luciferase Reporter Gene Assay
Assay type: cell-based
Conditions: engineered Jurkat cells overexpressing RORgT (LBD or full length) with Gal4 Luc reporter; 18 hours at 37° C.; 40 μM to 0.67 nM; read-out: RORg_GAL4 EC50
Procedure, shortened: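 Cells exposed to compound 18 hours at 37° C, then lysed for luciferase luminescence. Inhibition of constitutive activity expressed as percent reduction of signal window relative to a control compound.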

SMILES	EC50 [nM]
COc1ccc(Oc2c(Cl)cc(NC(=O)CC#N)cc2Cl)cc1C(C)C [Example 301]	343
COc1ccc(Oc2c(Cl)cc(NC(=O)Cn3ccnc3)cc2Cl)cc1C(C)C [Example 302]	185
CCCS(=O)(=O)Nc1cc(Cl)c(Oc2ccc(OC)c(C(C)C)c2)c(Cl)c1 [Example 303]	858
COc1ccc(Oc2c(Cl)cc(NS(=O)(=O)C3CC3)cc2Cl)cc1C(C)C [Example 304]	1080
COc1ccc(Oc2c(Cl)cc(NS(=O)(=O)C(C)C)cc2Cl)cc1C(C)C [Example 305]	421
CCNC(=O)Nc1cc(Cl)c(Oc2ccc(OC)c(C(C)C)c2)c(Cl)c1 [Example 306]	1890
COc1ccc(Oc2c(Cl)cc3[nH]c(Cc4ccccc4)nc3c2Cl)cc1C(C)C [Example 308]	1280
COc1ccc(Oc2c(Cl)cc3[nH]c(Cc4cccnc4)nc3c2Cl)cc1C(C)C [Example 309]	409
CCc1cc(Oc2c(Cl)cc(NC(=O)Cc3cccnc3)cc2Cl)ccc1OC [Example 310]	293
COc1ccc(Oc2c(Cl)cc(NC(=O)Cc3cccnc3)cc2Cl)cc1CC(C)C [Example 311]	153
COc1ccc(Oc2c(F)cc(NC(=O)Cc3cccnc3)cc2F)cc1CC(C)C [Example 312]	1440
COc1ccc(Oc2c(Cl)cc(NC(=O)CC3CCCN(S(N)(=O)=O)C3)cc2Cl)cc1C(C)C (stereo not shown) [Example 314]	844
COc1ccc(Oc2c(Cl)cc(NC(=O)CN3CCN(S(=O)(=O)C4CC4)CC3)cc2Cl)cc1C(C)C [Example 315]	88
COc1ccc(Oc2c(Cl)cc(NC(=O)CC3CCCN(S(=O)(=O)C(C)C)C3)cc2Cl)cc1C(C)C (stereo not shown) [Example 316]	943
COc1ccc(Oc2c(Cl)cc(NC(=O)CC3CCCN(S(=O)(=O)C4CC4)C3)cc2Cl)cc1C(C)C (stereo not shown) [Example 317]	95
COc1ccc(Oc2c(Cl)cc(NC(=O)C[C@H]3CCCN(S(=O)(=O)C4CC4)C3)cc2Cl)cc1C(C)C [Example 318]	76
COc1ccc(Oc2c(Cl)cc(NC(=O)CC3CCN(S(=O)(=O)C4CC4)CC3)cc2Cl)cc1C(C)C [Example 320]	177
COc1ccc(Oc2c(Cl)cc(NC(=O)C[C@H]3CCCN(S(=O)(=O)C(C)C)C3)cc2Cl)cc1C(C)C [Example 321]	149

SMILES	EC50 [nM]
CCS(=O)(=O)N1CCCC(CC(=O)Nc2cc(Cl)c(Oc3ccc(OC)c(C(C)C)c3)c(Cl)c2)C1 (stereo not shown) [Example 322]	126
CCS(=O)(=O)N1CCC[C@H](CC(=O)Nc2cc(Cl)c(Oc3ccc(OC)c(C(C)C)c3)c(Cl)c2)C1 [Example 323]	92
CC(C)c1cc(Oc2c(Cl)cc(NC(=O)Cc3cccnc3)cc2Cl)ccc1C1CC1 [Example 324]	214
CS(=O)(=O)N1CC2(CCN(C(=O)c3ccc(Cl)c(Oc4cc(F)cc(CCC(F)(F)F)c4)c3Cl)CC2)C1 [Example 327]	90
CC(C)c1cc(F)cc(Oc2c(Cl)cc(NC(=O)CC3CC(=O)NC(=O)C3)cc2Cl)c1 [Example 330]	237
CC(C)c1cc(F)cc(Oc2c(Cl)cc(NC(=O)CN3CCC(S(C)(=O)=O)CC3)cc2Cl)c1 [Example 331]	116
COc1ccc(Oc2c(Cl)cc(NC(=O)Cc3cccnc3)cc2Cl)cc1C(C)(C)O [Example 335]	722
COc1ccc(Oc2c(Cl)cc(NC(=O)[C@H]3CC[C@@H](C(=O)OC)CC3)cc2Cl)cc1C(C)C [Example 339]	983
COc1ccc(Oc2c(Cl)cc(NC(=O)CCC(=O)O)cc2Cl)cc1C(C)C [Example 340]	5530
COc1ccc(Oc2c(Cl)cc(NC(=O)Cc3cncnc3)cc2Cl)cc1C(C)C [Example 342]	136
COc1ccc(Oc2c(Cl)cc(NC(=O)Cc3ccc(C)nc3)cc2Cl)cc1C(C)C [Example 344]	75
COc1ccc(Oc2c(Cl)cc(NC(=O)Cc3cccnc3Cl)cc2Cl)cc1C(C)C [Example 345]	124
COc1ccc(Oc2c(Cl)cc(NC(=O)C3(c4cnccn4)CC3)cc2Cl)cc1C(C)C [Example 346]	816
COc1ccc(Oc2c(Cl)cc(NC(=O)c3c[nH]c4ncncc34)cc2Cl)cc1C(C)C [Example 347]	1820
COc1ccc(Oc2c(Cl)cc(NC(=O)C3(c4cccnc4)CCCCC3)cc2Cl)cc1C(C)C [Example 348]	372
COc1ccc(Oc2c(Cl)cc(NC(=O)c3c[nH]c4ncccc34)cc2Cl)cc1C(C)C [Example 349]	1370
COc1ccc(Oc2c(Cl)cc(N)cc2Cl)cc1C(C)C [Example 350]	2050

The next lines start with the values.

EC50 [nM]	SMILES
16	CCS(=O)(=O)c1ccc(CC(=O)Nc2cc(Cl)c(Oc3ccc(OC)c(C(C)C)c3)c(Cl)c2)cc1 [Example 307]
32	CCS(=O)(=O)N1CCN(CC(=O)Nc2cc(Cl)c(Oc3ccc(OC)c(C(C)C)c3)c(Cl)c2)CC1 [Example 313]
33	CCS(=O)(=O)N1CCC(CC(=O)Nc2cc(Cl)c(Oc3ccc(OC)c(C(C)C)c3)c(Cl)c2)CC1 [Example 319]
7.2	CC(C)(F)c1cc(F)cc(Oc2c(Cl)cc(NC(=O)Cc3ccc(S(C)(=O)=O)cc3)cc2Cl)c1 [Example 325]
10	NS(=O)(=O)c1ccc(CNC(=O)c2ccc(Cl)c(Oc3cc(F)cc(CCC(F)(F)F)c3)c2Cl)cc1 [Example 326]
19	CC(C)c1cc(F)cc(Oc2c(Cl)cc(NC(=O)Cc3cccc(S(C)(=O)=O)c3)cc2Cl)c1 [Example 328]
32	CC(C)c1cc(F)cc(Oc2c(Cl)cc(NC(=O)Cc3ccc(S(C)(=O)=O)cc3)cc2Cl)c1 [Example 329]
7.6	CC(C)c1cc(F)cc(Oc2c(Cl)cc(NC(=O)CN3CCN(S(C)(=O)=O)CC3)cc2Cl)c1 [Example 332]
8.1	CC(C)(F)c1cc(F)cc(Oc2c(Cl)cc(NC(=O)CC3CCN(S(C)(=O)=O)CC3)cc2Cl)c1 [Example 333]
6.6	CC(C)(F)c1cc(F)cc(Oc2c(Cl)cc(NC(=O)CN3CCN(S(C)(=O)=O)CC3)cc2Cl)c1 [Example 334]
14	COc1ccc(Oc2c(Cl)cc(NC(=O)Cc3ccc(S(C)(=O)=O)cc3)cc2Cl)cc1C(C)(C)F [Example 336]
15	CC(C)(F)c1cc(F)cc(Oc2c(Cl)ccc(C(=O)NCc3ccc(S(N)(=O)=O)cc3)c2Cl)c1 [Example 337]
1.8	CC(C)(F)c1cc(F)cc(Oc2c(Cl)ccc(C(=O)NCc3ccc(S(C)(=O)=O)cc3)c2Cl)c1 [Example 338]
75	COc1ccc(Oc2c(Cl)ccc(C(=O)N3CCC4(CC3)CN(C=O)C4)c2Cl)cc1C(C)C [Example 341]
67	COc1ccc(Oc2c(Cl)cc(NC(=O)Cc3ccc(Cl)nc3)cc2Cl)cc1C(C)C [Example 343]
5.7	CC(c1cc(F)cc(Oc2c(Cl)cc(NC(=O)CC3CCN(S(C)(=O)=O)CC3)cc2Cl)c1)C(F)(F)F (stereo not shown) [Example 351]
15	CC(c1cc(F)cc(Oc2c(Cl)cc(NC(=O)CC3CCN(S(C)(=O)=O)CC3)cc2Cl)c1)C(F)(F)F (stereo not shown) [Example 352]
14	CC(c1cc(F)cc(Oc2c(Cl)cc(NC(=O)Cc3ccc(S(C)(=O)=O)cc3)cc2Cl)c1)C(F)(F)F (stereo not shown) [Example 353]
3.5	CC(c1cc(F)cc(Oc2c(Cl)cc(NC(=O)Cc3ccc(S(C)(=O)=O)cc3)cc2Cl)c1)C(F)(F)F (stereo not shown) [Example 354]
16	CC(c1cc(F)cc(Oc2c(Cl)ccc(C(=O)NCc3ccc(S(N)(=O)=O)cc3)c2Cl)c1)C(F)(F)F (stereo not shown) [Example 355]
17	CC(c1cc(F)cc(Oc2c(Cl)ccc(C(=O)NCc3ccc(S(N)(=O)=O)cc3)c2Cl)c1)C(F)(F)F (stereo not shown) [Example 356]
11	CC(c1cc(F)cc(Oc2c(Cl)ccc(C(=O)N3CCC4(CC3)CN(S(C)(=O)=O)C4)c2Cl)c1)C(F)(F)F (stereo not shown) [Example 357]
6.6	C=C(C)c1cc(F)cc(Oc2c(Cl)cc(NC(=O)CC3CCN(S(C)(=O)=O)CC3)cc2Cl)c1 [Example 358]
